Source: article PMC10244169, “Psychedelics promote plasticity by directly binding to BDNF receptor TrkB” (Nature Neuroscience, 2023)

What was measured:
TrkB S440A = molecular target: T1, TrkB S440A (Rattus norvegicus, UniProt Q63604, S440A); assay: ^3H-LSD saturation binding, TrkB mutant
T1 construct: expressed in transfected cells; host or cells: HEK293T

TrkB:PLCγ1 [1] = molecular target: T2, TrkB:PLCγ1 (Mus musculus, UniProt P15209, Y433F); assay: TrkB:PLCγ1 interaction in PFC and hippocampus after single LSD injection (ELISA, co-immunoprecipitation); type: in vivo; settings: Y433F^+/− mice
T2 construct: from tissue; host or cells: prefrontal cortex and hippocampus of adult mice
T2 sequence (P15209 32-821 Y433F): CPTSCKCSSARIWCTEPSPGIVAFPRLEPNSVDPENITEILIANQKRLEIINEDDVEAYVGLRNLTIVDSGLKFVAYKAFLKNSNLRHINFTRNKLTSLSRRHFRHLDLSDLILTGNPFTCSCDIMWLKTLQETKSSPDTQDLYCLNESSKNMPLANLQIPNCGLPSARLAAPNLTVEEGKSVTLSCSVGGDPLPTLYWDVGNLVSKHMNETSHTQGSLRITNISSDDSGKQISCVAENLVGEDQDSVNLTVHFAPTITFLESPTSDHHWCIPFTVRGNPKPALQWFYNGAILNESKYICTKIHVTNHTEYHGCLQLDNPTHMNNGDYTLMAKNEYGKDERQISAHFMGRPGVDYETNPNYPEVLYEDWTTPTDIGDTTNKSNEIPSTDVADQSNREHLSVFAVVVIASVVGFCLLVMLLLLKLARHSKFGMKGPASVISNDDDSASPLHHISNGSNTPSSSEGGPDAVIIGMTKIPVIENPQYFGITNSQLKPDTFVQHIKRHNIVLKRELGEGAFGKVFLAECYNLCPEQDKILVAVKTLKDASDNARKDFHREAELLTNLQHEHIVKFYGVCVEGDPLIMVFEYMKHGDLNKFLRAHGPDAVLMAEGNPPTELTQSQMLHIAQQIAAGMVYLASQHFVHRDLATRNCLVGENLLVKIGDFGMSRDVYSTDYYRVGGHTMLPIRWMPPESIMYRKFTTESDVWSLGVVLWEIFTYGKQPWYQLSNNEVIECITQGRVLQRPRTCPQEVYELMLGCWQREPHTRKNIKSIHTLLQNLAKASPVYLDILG
T2 sequence (P15209 32-821, stated change not applied): as the sequence (P15209 32-821 Y433F) above, with F402Y counted along it
Method: (§1) The phosphorylation of TrkB (pY816) and interaction with PLCγ1 were assessed by enzyme-linked immunosorbent assay (ELISA) as previously described[11],[80],[81] with minor modifications. Briefly, white 96-well plates (PerkinElmer, OptiPlate 96F-HB) were precoated with goat anti-TrkB (R&D systems, AF1494; 1:500, overnight, 4 °C) antibody in carbonate buffer (pH 9.8) and blocked with 3% BSA in PBS with 0.1% Tween-20 (PBS-T) for 2 h at room temperature. […] Samples were incubated overnight at 4 °C, and 24 h later plates were washed with PBS-T and incubated with either rabbit anti-phospho-TrkB(Tyr816) (Cell Signaling Technology, 4168S; 1:2,000), rabbit anti-PLCγ1 (Cell Signaling Technologies, 5690S; 1:2,000) or rabbit anti-Trk (Cell Signaling Technologies, 92991; 1:2,000) antibodies overnight at 4 °C. After washing with PBS-T, plates were incubated with HRP-conjugated goat anti-rabbit (Bio-Rad, 170–5046; 1:5,000, 1 h, room temperature) antibody, followed by more washing with PBS-T. Finally, the chemiluminescent signal was read after brief incubation with Pierce ECL substrate (Thermo Fisher Scientific, 32106). Luminescence from blank wells that contained all reagents but the sample lysates was used to determine background signal. […]

TrkB:PLCγ1 [2] = molecular target: T3, TrkB:PLCγ1 (Mus musculus, UniProt P15209); assay: as above; type: in vivo; settings: WT mice, single administration
T3 construct: from tissue; host or cells: prefrontal cortex and hippocampus of adult mice
T3 sequence (P15209 32-821): as the sequence (P15209 32-821 Y433F) above, with F402Y counted along it
Method: as §1

T1 sequence (Q63604 32-821 S440A): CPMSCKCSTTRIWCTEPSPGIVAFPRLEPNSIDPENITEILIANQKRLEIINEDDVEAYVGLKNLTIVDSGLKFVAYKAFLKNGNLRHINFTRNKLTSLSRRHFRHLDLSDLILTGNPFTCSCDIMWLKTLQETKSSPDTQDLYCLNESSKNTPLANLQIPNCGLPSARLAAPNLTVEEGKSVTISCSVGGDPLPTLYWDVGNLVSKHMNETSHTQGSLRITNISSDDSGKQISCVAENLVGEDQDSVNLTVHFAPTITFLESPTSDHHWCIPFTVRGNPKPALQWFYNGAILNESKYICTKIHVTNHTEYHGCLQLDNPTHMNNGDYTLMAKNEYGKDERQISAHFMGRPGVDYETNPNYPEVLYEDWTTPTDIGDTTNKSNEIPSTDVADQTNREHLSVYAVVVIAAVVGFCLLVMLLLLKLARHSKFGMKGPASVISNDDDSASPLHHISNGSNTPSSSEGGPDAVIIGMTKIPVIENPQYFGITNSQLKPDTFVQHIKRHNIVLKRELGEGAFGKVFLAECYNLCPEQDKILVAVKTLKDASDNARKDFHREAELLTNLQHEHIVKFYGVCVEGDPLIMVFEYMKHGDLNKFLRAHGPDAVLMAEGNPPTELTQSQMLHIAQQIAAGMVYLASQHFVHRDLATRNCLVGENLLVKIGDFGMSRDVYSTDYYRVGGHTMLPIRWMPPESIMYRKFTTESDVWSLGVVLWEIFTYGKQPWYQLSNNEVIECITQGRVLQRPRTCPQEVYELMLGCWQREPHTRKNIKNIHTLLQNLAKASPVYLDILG

CCN(CC)C(=O)C1C=C2c3cccc4[nH]cc(c34)CC2N(C)C1 (stereo not drawn) [LSD, lysergic acid diethylamide]
Kd (TrkB S440A): 714 pM
Bmax (best-fit, 1a) (TrkB S440A; S440A): 114.7
h (best-fit, 1a) (TrkB S440A; S440A): 1.945
LSD binding (TrkB S440A; S440A mutation): did not influence LSD binding
TrkB:PLCγ1 interaction (TrkB:PLCγ1 [1]): these effects are impaired
TrkB:PLCγ1 interaction (TrkB:PLCγ1 [2]): increases TrkB:PLCγ1 interaction
